Assay results from PMC10609741 (Pharmaceutics, 2023).
≈ marks a conversion by molar mass, not a printed value.

Columns and labels:
[1] = Phase solubility study with β-CD (apparent solubility constant K1:1); format: physicochemical; details: 1:1 complex, K1:1 = Slope/S0(1−Slope); β-CD 0–15 mmol/L
Method: (§1) Stock solutions of β-CD were prepared in the concentration range of 0–15 mmol/L. From each stock solution 1 mL was taken and introduced into thermomixer flasks and 1 mL of suprasaturated solution of 4b, 4g, 4k, 4m was added and stirred at 600 rpm at 25 °C for 24 h, then at 60 °C for 24 h, and finally left to rest, at 25 °C, for another 24 h. UV absorbance was monitored within 190–320 nm on extracts freshly diluted with deionized water, and the maximum wavelength of 226 nm was selected for solubility determinations. All measurements were made in triplicate.

[2] = Solubility of the ibuprofen derivative in water in the absence of β-CD (S0), UV 226 nm; format: physicochemical; details: water without β-CD, 25 °C, from calibration curves
Method: as §1

[3] = system: Swiss albino mice; assay: Hot-plate test; format: in vivo; details: oral gavage; for pain inhibition: after 4 h
Method: (§2) The tests were performed using Swiss albino mice (25–30 g) which were divided in groups of eight mice each.
A hot-plate test was performed using a hot plate apparatus (DS 37; UgoBasile). The plate was set at 55 ± 0.1 °C and the response latency was noted as the interval between placing the animal on the plate and the occurrence of licking, shaking of the hind paws, or jumping off the surface. The latency of the analgesic response was measured at onset and at 1, 2, 3, and 4 h. The experiment cut-off time was set to 15 s to prevent tissue damage. For each group, the mean value (±S.E.) was reported.

[4] = system: Swiss albino mice; assay: Tail-flick test; format: in vivo; details: oral gavage
Method: as §2
The tail-flick test measures the reflex latency after exposure to a heating source, in order to evaluate the spinal response to pain. The tail flick unit (37360; UgoBasile, Gemonio, Italy) directs heat and stimulates the distal part of the mouse tail. The tail-flick latency is defined as the period before the mouse removed its tail from heat stimuli. The pain response at onset and at 1, 2, 3, and 4 h after administration of drugs, was noted. To prevent tissue lesions, the experiment cut-off time was set at 12 s. The pain inhibition (%) was calculated for each tested compound/β-CD complex and for each group the mean value (±S.E.) was reported.

[5] = system: Swiss albino mice; assay: Acetic acid writhing test; format: in vivo; details: acetic acid 1% i.p. 4 h after oral administration, writhes counted over 30 min
Method: as §2
To determine visceral pain, a writhing test was used. […] The mice were placed in a large glass cylinder and the number of abdominal writhes was recorded over a period of 30 min. The inhibition (%) of writhings was calculated to ascertain the analgesic effect. For each group, the mean value (±S.E.) was reported.

[6] = system: Swiss albino mice; assay: Paw formalin test; format: in vivo; details: formalin 5% 4 h after oral administration
Method: as §2
The analgesic and anti-inflammatory effects of the compounds were evaluated using formalin assay. […] The time (s) that the mice spent licking and/or biting the injected paw was recorded. Depending on the time value, the pain can be classified as neurogenic pain (0 to 5 min), interphase pain (5 to 15 min), and inflammatory pain (15 to 30 min). For each group, the mean value (±S.E.) was reported.

[7] = 1/20 of LD50, maximum after 2 h

Row | Structure (SMILES) | apparent solubility constant (K1:1) in the presence of β-CD [1] [mol⁻¹] | solubility [2] [µg/mL] | pain inhibition [3] [%] | pain inhibition, maximum effect [4, 7] [%] | inhibition of writhings [5] [%] | pain inhibition, maximum effect ([4]; 1/20 of LD50, maximum at 3 h) [%] | time of maximum analgesic effect ([3]; 1/20 of LD50) [h] | time mice spent licking the formalin-injected paw, first phase ([6]; first phase 0–5 min, neurogenic pain) [s] | time mice spent licking the formalin-injected paw, second phase ([6]; second phase 15–30 min, inflammatory pain) [s]
1 | CC(C)Cc1ccc(C(C)C(=O)NN2C(=O)CSC2c2ccc(Cl)cc2)cc1 (centres unmarked) [4b] | 771.81 | 9.21 (≈ 22.1 µM) | 58.93 | 25.54 |  |  |  |  | 
2 | CC(C)Cc1ccc(C(C)C(=O)NN2C(=O)CSC2c2ccc([N+](=O)[O-])cc2)cc1 (centres unmarked) [4g] | 723.50 | 15 (≈ 35.1 µM) |  | 24.90 |  |  |  |  | 
3 | CC(C)Cc1ccc(C(C)C(=O)NN2C(=O)CSC2c2ccc(C#N)cc2)cc1 (centres unmarked) [4k] | 713.6510 | 22.8 (≈ 55.9 µM) | 63.03 |  | 58.60 | 32.01 |  |  | 
4 | CC(C)Cc1ccc(C(C)C(=O)NN2C(=O)CSC2c2ccc(N)cc2)cc1 (centres unmarked) [4m] |  | 38.1 (≈ 95.9 µM) |  |  |  | 44.19 | 3 |  | 
5 | CC(C)Cc1ccc(C(C)C(=O)[O-])cc1.[Na+] (centres unmarked) [Ibu-Na, Ibuprofen sodium, reference compound] |  |  | 47.22 |  | 55.65 | 45.86 |  | 59.50 | 32
